What was measured:
PCSK9 [1] = molecular target: T1, PCSK9 (Homo sapiens, UniProt Q8NBP7, G670E/V474I); experiment: biochemical
Target sequence in this assay (Q8NBP7 with tags, fused parts or gaps V474I/G670E): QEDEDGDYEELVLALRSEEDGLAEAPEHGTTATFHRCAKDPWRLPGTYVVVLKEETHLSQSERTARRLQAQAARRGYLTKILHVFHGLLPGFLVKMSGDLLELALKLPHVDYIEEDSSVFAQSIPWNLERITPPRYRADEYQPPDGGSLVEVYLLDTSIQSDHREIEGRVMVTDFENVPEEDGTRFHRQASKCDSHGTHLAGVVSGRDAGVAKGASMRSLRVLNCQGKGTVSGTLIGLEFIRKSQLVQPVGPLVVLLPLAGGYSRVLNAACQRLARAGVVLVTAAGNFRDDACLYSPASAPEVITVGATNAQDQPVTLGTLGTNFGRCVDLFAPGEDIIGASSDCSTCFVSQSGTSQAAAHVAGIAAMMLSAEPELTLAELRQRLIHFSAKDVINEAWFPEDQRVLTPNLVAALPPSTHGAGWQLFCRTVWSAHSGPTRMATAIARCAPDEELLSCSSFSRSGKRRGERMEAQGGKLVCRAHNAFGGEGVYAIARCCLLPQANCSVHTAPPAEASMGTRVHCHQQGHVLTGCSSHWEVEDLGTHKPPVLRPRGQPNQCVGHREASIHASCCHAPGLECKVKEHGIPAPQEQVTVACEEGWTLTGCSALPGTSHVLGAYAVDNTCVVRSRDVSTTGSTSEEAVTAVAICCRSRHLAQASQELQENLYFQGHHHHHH

[2] = molecular target: GSK3b (Glycogen synthase kinase-3 beta) (Homo sapiens, UniProt P49841); experiment: Assay 6 - GSK3b assay (ThermoFisher, FRET Z-Lyte); format: biochemical; conditions: geometric mean; ATP Conc: 10.000 μM; read-out: Assay 6 (GSK3B FRET-Z-Lyte CR) GMean IC50 (μM) ATP Conc: 10.000
Method: This assay measures the activity of the compounds at GSK3b (Glycogen synthase kinase-3 beta).
The test compounds were screened in 1% DMSO (final) in the well. For 10-point titrations, 3-fold serial dilutions are conducted from the starting concentration of 10 μM.
• Bar-coded Corning, low volume NBS, black 384-well plate • 1. 2.5 μL—4× Test Compound or 100 nL 100× plus 2.4 μL kinase buffer • 2. 5 μL—2× Peptide/Kinase Mixture • 3. 2.5 μL—4× ATP Solution • 4. 30-second plate shake • 5. 60-minute Kinase Reaction incubation at room temperature • 6. 5 μL—Development Reagent Solution • 7. 30-second plate shake • 8. 60-minute Development Reaction incubation at room temperature • 9. Read on fluorescence plate reader and analyse the data
In step 2, the 2× GSK3β (GSK3 beta)/Ser/Thr (Glycogen synthase kinase-3 beta/Serine/Threonine) 09 mixture is prepared in 50 mM HEPES (4-(2-hydroxyethyl)-1-piperazineethanesulfonic acid) pH 7.5, 0.01% BRIJ-35, 10 mM MgCl2, 1 mM EGTA (egtazic acid). The final 10 μL Kinase Reaction consists of 0.22-0.92 ng GSK3β (GSK3 beta) and 2 μM Ser/Thr 09 in 50 mM HEPES pH 7.5, 0.01% BRIJ-35, 10 mM MgCl2, 1 mM EGTA.
In step 3 the ATP Solution is diluted to a 4× working concentration in Kinase Buffer (50 mM HEPES pH 7.5, 0.01% BRIJ-35, 10 mM MgCl2, 1 mM EGTA).
In Step 6 the Development Reagent is diluted 1:512 in Development Buffer (10× Novel PKC Lipid Mix: 2 mg/mL Phosphatidyl Serine, 0.2 mg/mL DAG in 20 mM HEPES, pH 7.4, 0.3% CHAPS).
SelectScreen® Kinase Profiling Service uses XLfit from IDBS. The dose response curve is curve fit to model number 205 (sigmoidal dose-response model).

[3] = molecular target: T2, potassium ion channel hERG (human Ether-á-go-go-Related Gene) (Homo sapiens, UniProt Q12809); experiment: Assay 5 - hERG assay (SyncroPatch 384PE patch clamp, CHO cells); format: cell-based; conditions: geometric mean, CHO cells over-expressing hERG, read-out: Assay 5 (hERG Hu CHO IF EPh CR-Syncro) GMean IC50
T2 construct: expressed in transfected cells; host or cells: Chinese hamster ovary K1 (CHO)
Method: Assay 5—hERG Assay (Human Ether-á-go-go-Related Gene)
This assay (human Ether-á-go-go-Related Gene) measures activity of the compounds at the potassium ion channel hERG (human Ether-á-go-go-Related Gene).
Experiments were performed on the SyncroPatch 384PE high throughput patch clamp platform at room temperature and medium resistance chips with 4 patch holes per site. Chinese hamster ovary K1 (CHO) cell lines over-expressing the ion channel of choice (hERG) were used in assay-ready format and kept in liquid nitrogen or were used from live culture. Cells were either thawed and diluted in HBSS or were detached from flasks and resuspended in HBSS. HBSS comprised 140 mM NaCl, 4 mM KCl, 10 mM HEPES and 5 mM Glucose (pH 7.4). The internal patch clamp solution was KF 120 mM, KCl 20 mM, HEPES 10 mM, EGTA 10 mM, and 25 μM Escin (pH 7.2). After the sealing process was complete, the external solution was exchanged for external patch clamp solution comprising NaCl 80 mM, KCl 4 mM, HEPES 10 mM, CaCl2 2 mM, MgCl2 1 mM, glucose 5 mM, and NMDG 60 mM (pH 7.4). All solutions were stored at room temperature, except Escin, which was stored at 4° C. All test compounds were dispensed in greiner-bio 384 well plates and tested in a 6 point cumulative assay (final DMSO concentration 0.33%). Only wells that passed previously agreed acceptance criteria for this platform were used in this analysis (30 MegaOhm seal resistance, Z prime>0.4 and current size>0.2 nA).

PCSK9 [4] = molecular target: T1, PCSK9; experiment: cell-based
Target sequence in this assay (Q8NBP7 31-152): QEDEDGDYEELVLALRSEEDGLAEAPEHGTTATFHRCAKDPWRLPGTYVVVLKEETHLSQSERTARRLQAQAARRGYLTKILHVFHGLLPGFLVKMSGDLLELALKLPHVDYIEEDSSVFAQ
Target sequence in this assay (Q8NBP7 153-692 V474I/G670E): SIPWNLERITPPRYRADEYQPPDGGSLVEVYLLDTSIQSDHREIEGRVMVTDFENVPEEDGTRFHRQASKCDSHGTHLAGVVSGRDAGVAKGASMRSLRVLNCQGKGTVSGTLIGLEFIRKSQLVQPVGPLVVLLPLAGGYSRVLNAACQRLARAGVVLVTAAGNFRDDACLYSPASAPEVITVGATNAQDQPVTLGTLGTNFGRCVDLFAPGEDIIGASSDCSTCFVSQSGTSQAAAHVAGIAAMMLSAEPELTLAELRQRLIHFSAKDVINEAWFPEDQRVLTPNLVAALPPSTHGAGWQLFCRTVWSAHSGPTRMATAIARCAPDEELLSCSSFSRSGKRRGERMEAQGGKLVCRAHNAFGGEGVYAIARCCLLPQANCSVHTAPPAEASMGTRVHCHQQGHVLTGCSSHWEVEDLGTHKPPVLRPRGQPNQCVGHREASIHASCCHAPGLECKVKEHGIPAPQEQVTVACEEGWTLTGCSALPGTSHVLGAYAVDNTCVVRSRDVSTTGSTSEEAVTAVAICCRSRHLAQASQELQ
Description: This assay measures for PCSK9 antagonist activity based on a test compound's capacity to restore LDL-C uptake in HepG2 cells. The assay is based on exogenous PCSK9 and LDL-C complexed with a pH-sensitive dye. Outside the cells, at neutral pH, the pHrodo Red-LDL is dimly fluorescent but upon LDLR mediated endocytosis it fluoresces brightly. PCSK9 traffics the LDLR to intracellular degradation and reduces uptake of LDL-C. Inhibition of PCSK9 reduces LDLR degradation and the increased LDL-C uptake is quantified by fluorescence microscopy.
Cell medium: MEM supplemented with 10% FBS, 1× NEAA and Sodium Pyruvate
Assay medium: OptiMem supplemented with penicillin/streptomycin
Cells: HepG2 (ATCC #HB-8065)
Cryopreserved HepG2 cells were thawed in assay medium and centrifuged for 5 min at 250 g. Supernatant was discarded and the cell pellet resuspended in cell medium and counted with a Nucleocounter. Cells were again centrifuged 5 min at 250 g and the pellet was resuspended to 500000 cells/mL in assay medium. • 2. 20 μL of above cell mix was dispensed into black pclear TC treated 384 well plates with Multidrop Combi and left at room temperature for 20 minutes. • 3. Plates were incubated at 37° C., 5% CO2 for 24 h
Test compounds were prepared in concentration response in DMSO with a half-log dilution factor in DMSO in Echo 384 LDV plates starting at 10 mM. • 2. 30 nL of above test compounds were dispensed with Echo 655 to cells for a top concentration of 10 μM • 3. […] Plates were incubated at 37° C., 5% CO2 for 24 h
10 μL pHrodo Red-LDL in assay medium was dispensed to cells with Multidrop Combi for 6 μg/mL • 2. Plates were incubated at 37° C., 5% CO2 and imaged with the Incucyte S3 after 4 h and 24 h
Image data was processed using Incucyte 2021, a software to identify cells and red fluorescent intensity. Screener was used to further process data. Data was normalized as % effect of the signal between median values of the on-plate controls of DMSO and 100 nM Evolocumab according to the formula % effect=−100*(x−DMSO)/(Evolocumab−DMSO) where x equals the measured signal. Concentration response data of the normalized values were fitted using a four-parameter logistic fit.

Sequence of GSK3b (Glycogen synthase kinase-3 beta) (P49841 whole entry): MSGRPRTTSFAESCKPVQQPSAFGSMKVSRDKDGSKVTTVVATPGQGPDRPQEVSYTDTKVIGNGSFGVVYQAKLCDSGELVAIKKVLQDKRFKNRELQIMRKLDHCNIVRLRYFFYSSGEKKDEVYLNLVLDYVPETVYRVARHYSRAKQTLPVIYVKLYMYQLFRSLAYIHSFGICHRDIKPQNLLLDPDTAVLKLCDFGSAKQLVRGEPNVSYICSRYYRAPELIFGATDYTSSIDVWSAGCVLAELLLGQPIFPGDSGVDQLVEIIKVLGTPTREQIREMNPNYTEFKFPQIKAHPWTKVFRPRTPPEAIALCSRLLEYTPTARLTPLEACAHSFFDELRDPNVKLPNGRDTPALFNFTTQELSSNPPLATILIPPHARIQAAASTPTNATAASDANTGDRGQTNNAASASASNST
T2 sequence (Q12809 whole entry): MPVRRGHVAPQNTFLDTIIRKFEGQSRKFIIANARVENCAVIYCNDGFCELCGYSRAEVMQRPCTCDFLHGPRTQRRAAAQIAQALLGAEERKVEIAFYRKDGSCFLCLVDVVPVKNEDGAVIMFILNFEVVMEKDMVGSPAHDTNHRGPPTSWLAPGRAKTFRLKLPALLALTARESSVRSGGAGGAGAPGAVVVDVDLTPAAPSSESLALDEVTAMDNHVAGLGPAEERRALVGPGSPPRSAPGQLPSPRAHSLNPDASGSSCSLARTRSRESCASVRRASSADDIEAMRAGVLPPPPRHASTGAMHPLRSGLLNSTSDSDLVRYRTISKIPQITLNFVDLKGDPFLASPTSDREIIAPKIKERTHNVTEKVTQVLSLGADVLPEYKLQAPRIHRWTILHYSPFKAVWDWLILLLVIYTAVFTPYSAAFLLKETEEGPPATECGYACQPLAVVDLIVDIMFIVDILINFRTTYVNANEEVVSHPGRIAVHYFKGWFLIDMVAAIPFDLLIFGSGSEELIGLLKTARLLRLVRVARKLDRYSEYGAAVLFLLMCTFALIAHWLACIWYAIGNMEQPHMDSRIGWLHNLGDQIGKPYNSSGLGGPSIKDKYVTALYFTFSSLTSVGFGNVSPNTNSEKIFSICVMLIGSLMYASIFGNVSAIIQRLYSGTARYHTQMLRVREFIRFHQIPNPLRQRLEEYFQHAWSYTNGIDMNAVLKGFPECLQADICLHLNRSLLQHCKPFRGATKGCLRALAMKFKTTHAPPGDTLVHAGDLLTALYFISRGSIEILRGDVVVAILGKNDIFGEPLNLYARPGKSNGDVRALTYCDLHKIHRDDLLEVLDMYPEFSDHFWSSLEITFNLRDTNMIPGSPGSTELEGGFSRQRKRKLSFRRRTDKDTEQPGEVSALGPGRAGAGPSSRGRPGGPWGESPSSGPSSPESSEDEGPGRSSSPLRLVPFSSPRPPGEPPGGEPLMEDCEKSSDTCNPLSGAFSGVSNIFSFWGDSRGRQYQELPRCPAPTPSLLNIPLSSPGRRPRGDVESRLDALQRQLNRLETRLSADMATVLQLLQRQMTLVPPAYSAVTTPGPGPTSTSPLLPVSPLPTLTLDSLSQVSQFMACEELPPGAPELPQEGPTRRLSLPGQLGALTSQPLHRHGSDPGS

| SMILES | IC50 (PCSK9 [1]) [nM] | IC50 [2] [µM] | IC50 [3] [nM] | IC50 (PCSK9 [4]) [nM] |
| --- | --- | --- | --- | --- |
| O=c1ccc(Cl)cn1-c1ccc(N[C@H]2CC[C@H](Nc3nc4cccnc4o3)C2)nc1 [Example 13, 5-Chloro-6′-(((1S,3S)-3-(oxazolo[5,4-b]pyridin-2-ylamino)cyclopentyl)amino)-2H-[1,3′-bipyridin]-2-one] | 13.3 | > 10 | 27800 | 1600 |
| O=c1[nH]c2ccccc2n1-c1ccc(N[C@H]2CC[C@H](Nc3nc4cccnc4[nH]3)C2)nc1 [Example 35, 1-(6-(((1S,3S)-3-((3H-Imidazo[4,5-b]pyridin-2-yl)amino)cyclopentyl)amino)pyridin-3-yl)-1,3-dihydro-2H-benzo[d]imidazol-2-one] | 0.7 | 7.61 | 27400 | 108 |
| O=c1c(OC(F)F)cccn1-c1ccc(N[C@H]2CC[C@H](Nc3nc4cccnc4o3)C2)nc1 [Example 79, 3-(Difluoromethoxy)-6′-(((1S,3S)-3-(oxazolo[5,4-b]pyridin-2-ylamino)cyclopentyl)amino)-2H-[1,3′-bipyridin]-2-one] | 4.1 | > 10 | 4570 | 123 |
| COc1cnc2[nH]c(N[C@H]3CC[C@H](Nc4ccc(-n5ccccc5=O)cn4)C3)nc2c1 [Example 57, 6′-(((1S,3S)-3-((6-Methoxy-3H-imidazo[4,5-b]pyridin-2-yl)amino)cyclopentyl)amino)-2H-[1,3′-bipyridin]-2-one] | 4.3 | 5.45 | > 40000 | 66 |
| O=c1cccnn1-c1ccc(N[C@H]2CC[C@H](Nc3nc4cccnc4[nH]3)C2)nc1 [Example 28, 2-(6-(((1S,3S)-3-((3H-Imidazo[4,5-b]pyridin-2-yl)amino)cyclopentyl)amino)pyridin-3-yl)pyridazin-3(2H)-one] | 5.7 | > 10 | > 40000 | 173 |
| O=c1ccccn1-c1ccc(N[C@H]2CC[C@H](Nc3nc4cc(C(F)(F)F)cnc4[nH]3)C2)nc1 [Example 62, 6′-(((1S,3S)-3-((6-(Trifluoromethyl)-3H-imidazo[4,5-b]pyridin-2-yl)amino)cyclopentyl)amino)-2H-[1,3′-bipyridin]-2-one] | 2.2 | 0.153 | > 40000 | 89 |
| N#Cc1ccc(=O)n(-c2ccc(N[C@H]3CC[C@H](Nc4nc5cccnc5[nH]4)C3)nc2)c1 [Example 43, 6′-(((1S,3S)-3-((3H-Imidazo[4,5-b]pyridin-2-yl)amino)cyclopentyl)amino)-2-oxo-2H-[1,3′-bipyridine]-5-carbonitrile] | 4.2 | > 10 | > 40000 | 200 |
| O=c1c(Cl)cccn1-c1ccc(N[C@H]2CC[C@H](Nc3nc4cccnc4[nH]3)C2)nc1 [Example 42, 6′-(((1S,3S)-3-((3H-Imidazo[4,5-b]pyridin-2-yl)amino)cyclopentyl)amino)-3-chloro-2H-[1,3′-bipyridin]-2-one] | 0.9 | 6.14 | > 40000 | 77 |
| Cc1cnc2[nH]c(N[C@H]3CC[C@H](Nc4ccc(-n5ccccc5=O)cn4)C3)nc2c1 [Example 49, 6′-(((1S,3S)-3-((6-Methyl-3H-imidazo[4,5-b]pyridin-2-yl)amino)cyclopentyl)amino)-2H-[1,3′-bipyridin]-2-one] | 2.8 | 5.59 | > 40000 | 43 |
| Cc1ncc(-c2ccc(=O)n(-c3ccc(N[C@H]4CC[C@H](Nc5nc6cc(Br)cnc6[nH]5)C4)nc3)c2)cn1 [Example 52, 6′-(((1S,3S)-3-((6-Bromo-3H-imidazo[4,5-b]pyridin-2-yl)amino)cyclopentyl)amino)-5-(2-methylpyrimidin-5-yl)-2H-[1,3′-bipyridin]-2-one] | 4.5 | 0.178 | > 40000 | 590 |
| CN1CC(=O)N(c2ccc(N[C@H]3CC[C@H](Nc4nc5cccnc5[nH]4)C3)nc2)C1=O [Example 38, 3-(6-(((1S,3S)-3-((3H-Imidazo[4,5-b]pyridin-2-yl)amino)cyclopentyl)amino)pyridin-3-yl)-1-methylimidazolidine-2,4-dione] | 5.7 | > 10 | > 40000 | 158 |
| O=c1ccc(OC(F)F)cn1-c1ccc(N[C@H]2CC[C@H](Nc3nc4cccnc4o3)C2)nc1 [Example 78, 5-(Difluoromethoxy)-6′-(((1S,3S)-3-(oxazolo[5,4-b]pyridin-2-ylamino)cyclopentyl)amino)-2H-[1,3′-bipyridin]-2-one] | 18.9 | > 10 | 39600 | 367 |
| O=c1ccc(OC(F)F)cn1-c1ccc(N[C@H]2CC[C@H](Nc3nc4cccnc4s3)C2)nc1 [Example 77, 5-(Difluoromethoxy)-6′-(((1S,3S)-3-(thiazolo[5,4-b]pyridin-2-ylamino)cyclopentyl)amino)-2H-[1,3′-bipyridin]-2-one] | 4.2 | 4.72 | 10400 | 204 |
| N#Cc1ccc(=O)n(-c2ccc(N[C@H]3CC[C@H](Nc4nc5cccnc5s4)C3)nc2)c1 [Example 26, 2-Oxo-6′-(((1S,3S)-3-(thiazolo[5,4-b]pyridin-2-ylamino)cyclopentyl)amino)-2H-[1,3′-bipyridine]-5-carbonitrile] | 6.8 | > 10 | 19700 | 168 |
| O=c1ccncn1-c1ccc(N[C@H]2CC[C@H](Nc3nc4cccnc4[nH]3)C2)nc1 [Example 29, 3-(6-(((1S,3S)-3-((3H-Imidazo[4,5-b]pyridin-2-yl)amino)cyclopentyl)amino)pyridin-3-yl)pyrimidin-4(3H)-one] | 5.7 | > 10 | > 40000 | 68 |
| O=c1c(Cl)cccn1-c1ccc(N[C@H]2CC[C@H](Nc3nc4cccnc4o3)C2)nc1 [Example 16, 3-Chloro-6′-(((1S,3S)-3-(oxazolo[5,4-b]pyridin-2-ylamino)cyclopentyl)amino)-2H-[1,3′-bipyridin]-2-one] | 1.6 | > 10 | 28400 | 81 |
| N#Cc1cccn(-c2ccc(N[C@H]3CC[C@H](Nc4nc5cccnc5s4)C3)nc2)c1=O [Example 23, 2-Oxo-6′-(((1S,3S)-3-(thiazolo[5,4-b]pyridin-2-ylamino)cyclopentyl)amino)-2H-[1,3′-bipyridine]-3-carbonitrile] | 1.2 | > 10 | 24600 | 92 |
| O=c1ccccn1-c1ccc(N[C@H]2CC[C@H](Nc3nc4cc(Cl)cnc4[nH]3)C2)nc1 [Example 47, 6′-(((1S,3S)-3-((6-Chloro-3H-imidazo[4,5-b]pyridin-2-yl)amino)cyclopentyl)amino)-2H-[1,3′-bipyridin]-2-one] | 1.6 | 0.331 | > 40000 | 64 |
| O=c1ccccn1-c1ccc(N[C@H]2CC[C@H](Nc3nc4cc(OC(F)(F)F)cnc4[nH]3)C2)nc1 [Example 51, 6′-(((1S,3S)-3-((6-(Trifluoromethoxy)-3H-imidazo[4,5-b]pyridin-2-yl)amino)cyclopentyl)amino)-2H-[1,3′-bipyridin]-2-one] | 2.5 | 1.52 | 30000 | 49 |
